Data taken from patent US8741970B2, “Composition and method for the enhancement of the efficacy of drugs” (Alchemia Oncology Pty Limited, priority 1999, dated 2014).
Where “and” joins values, the source holds several entries; their conditions need not be identical. Equal values may be shown once.

Key:
[1] = test system: murine Lewis lung xenografts; conditions: low dose of 0.01 mg/kg; cited from earlier work
[2] = 1H NMR deuterium exchange and transferred NOESY of MTX with HA; assay type: physicochemical
Description: Solvent suppression of the water signal for NOESY, ROESY and TOCSY experiments was achieved using a modified WATERGATE sequence (Piotto et al., 1992) in which two gradient pulses of 1 ms was applied on either side of a binomial 3-9-19 pulse. Spectra was routinely acquired over 6024 Hz with 4096 complex data points in F2 and 512 increments in the F1 dimension, with 32 scans per increment for the TOCSY experiments and 80 scans for the NOESY. Slowly exchanging NH protons were detected by acquiring a series of one-dimensional (1D) spectra acquired over 16K data points and with 32 scans. […]

[3] = iv 10.5 mg/kg (400 mg/m^2), within 30 min; cited from earlier work
[4] = test system: Human Breast Cancer Xenografts (MDA-MB-468); assay: 5-FU/HA adjuvant therapy efficacy, 6-month study; assay type: in vivo
Description: (§1) One of the most commonly used treatment regimens for human breast cancer is cyclophosphamide, methotrexate and 5-fluorouacil which is administered on day 1 and 8 of a 28 day cycle. In human breast cancer the initial treatment regimen is for 6 cycles at which time the patient condition is re-assessed, therefore we tried to simulate the human treatment regimen as closely as possible by exposing the mice to 6 cycles (6 months) of treatment in a long term efficacy study and a 6 cycles (6 week) short term efficacy study. Considering the life cycle of a mouse is approximately 2 years we commenced both short-term and long-term treatment protocols as shown in Table 8.
(§2) Mice were randomly divided into 7 groups of 8 animals per group for the short term study and 5 groups of 8 animals for the long term study (refer to Table 8 for dosage and treatment administration schedule).
(§3) Animals were weighed and tumour volumes measured on the day of treatment application for long term study as described in Example 8. In the 6-week study animals were weighed and tumour volumes measured on a daily basis. […] It has been experimentally proven that stress can be a major factor in a patients response to chemotherapy (Shackney et al, 1978), therefore we ensured that equal numbers of mice were allocated to each cage, the animal number per cage varied from 5-8 depending on the stage of experimentation.
(§4) The experimental end-point occurred when the animal had to be euthanised due to degree of disease progression or when the 6 month (long term) or 6 week (short term) treatment regimen was completed. Due to the animal ethics guidelines the animals were monitored fortnightly by an independent animal ethics officer who assessed the degree of disease progression.
The TDT is the time taken (days) for a tumour to double in mass or cell number, a parameter of tumour growth which is simple to measure and can be easily related to clinical tumour behaviour in conceptional terms (Shackney et al, 1978). By monitoring the tumour doubling time it is often possible to evaluate tumour chemotherapeutic response, as slowly growing tumours tend to respond poorly to chemotherapy (Schabel, 1975).
The overall patient survival time was calculated as the time (days or weeks) that the animal lived after the commencement of treatment.

[5] = in vivo; cited from earlier work
[6] = 1H NMR titration and diffusion experiments of 5-FU with HA; assay type: physicochemical; conditions: 600 MHz 1H NMR titration; HA 750 kDa, 3 mg/mL; pH 8.8 to 9.1
Description: To further investigate the nature of the interaction between HA and chemotherapeutic drugs 1H Nuclear Magnetic Resonance (NMR) spectroscopy was used. Deuterium oxide (^2H2O (99.96%)) was obtained from Cambridge Isotope Laboratories. MTX was obtained from Faulding Pharmaceuticals and 5-FU and HA stock solutions were prepared as described previously.
Spectra were recorded at 298 K on a Brüker DRX spectrometer operating at 600 MHz with a shielded gradient unit. The 2D experiments were recorded in phase-sensitive mode using time-proportional phase incrementation for quadrature detection in the t1 dimension (Marion & Wüthrich, 1983). The 2D experiments included TOCSY sequence using a MLEV-17 spin lock sequence (Bax & Davis, 1985) with a mixing time of 120 ms; NOESY (Kumar et al., 1980) with mixing times of 250 and 400 ms and ROESY spectrum with a mixing time of 250 ms. Temperature calibration of the probe was achieved by comparison to ethylene glycol chemical shifts. All chemical shifts (ppm) were referenced to the methyl resonance of 4,4-dimethyl-4-silapentane-1-sulfonate (DSS, 0 ppm).
NMR diffusion experiments were acquired on a Brüker AMX spectrometer equipped with a gradient control unit operating at 500 MHz. All experiments were acquired with 16 or 64 scans at 298 K over 16K of data points and 7575 Hz. A gradient strength of 15.44 G/cm was employed for the diffusion experiments. […]

[7] = test system: MDA-MB-468; assay: Drug cytotoxicity assay (cell count after 4 days in test media), MDA-MB-468; assay type: cell-based; conditions: Homo sapiens, 96 h, 5-FU alone
Description: A stock of HA solution (10 μM, 7 mg/ml) was prepared by dissolving desiccated HA (modal Mr 7×10^5 Da,) in 0.9% w/v pyrogen-free injection grade NaCl. To ensure a homogenous solution the HA was dissolved overnight at 4° C. followed by thorough vortexing. To ensure that ‘the HA had maintained its molecular weight during the preparation of the stock solution, the solution was analysed on a Sephacryl S-1000 size exclusion gel with column −40 specifications of 1.6 cm×70 cm, sample size 2 ml, flow rate 18.1/h and 2 ml fraction size. The HA was used at a final concentration of 1000 nm, with all dilutions made in the appropriate growth medium.
Based on these plasma concentrations in vivo the following drug concentrations were selected; 0, 1, 5, 10, 20, 50, 100 μM 5-FU±100 nM HA. […] When the cultures reached confluence the cells were removed from the flasks in 0.25% trypsin/0.05% EDTA. The single-cell suspension was counted with a Coulter counter (ZM1 model) and cells were resuspended to 100,000 cells/ml in cell-specific media. Cells were plated into 24-well plates (2 cm^2 surface area) by adding 0.5 ml of cell suspension per well, resulting in 50,000 cells/well. […] After 4 days of growth in test media the cultures were washed with HBSS, the cells removed from the well by trypsinisation with 0.25% trypsin/0.05% EDTA and cells were counted with a Coulter Counter.

[8] = test system: Human Breast Cancer Xenografts (MDA-MB-468); assay: 5-FU/HA adjuvant therapy efficacy, 6-week study; assay type: in vivo
Description: as §1, §2, §3, §4
The tissue was fixed for 16-24 h before histological processing. Fixed tissue was dehydrated stepwise to 100% ethanol and embedded in paraffin blocks from which 2-4 μm sections were placed on glass microscope slides. Staining the tissue sections with a haematoxylin nuclear stain and eosin cytoplasmic stain highlighted any pathological features that could indicate treatment toxicity.
Nine to 11 lymph nodes were collected per animal, ensuring that all nodes which drained the tumour area were collected. There are currently two methods used for the detection of lymph node metastasis:
The haematoxylin and eosin stained lymph nodes were examined by Dr P. Allen (certified pathologist) where each node was microscopically examined for the presence of tumour cells. The CEA immunostained lymph nodes were microscopically examined, where any positively stained nodes were counted and considered positive for lymph node metastasis.
Tumour volume was monitored on a daily or weekly basis by calliper measurements and tumour volume calculated as previously described in example 8.
One of the most common toxic effects of 5-FU is on the gastro-intestinal tract where haemorrhagic enteritis and intestinal perforation can occur (Martindale, 1993). Animals were monitored daily for GI tract upset such as diarrhoea and weekly for more severe toxicity manifestations such as weight loss. Weight loss was monitored by calculating net body weight as estimated by subtracting tumour weight, which was calculated as 1 g×tumour volume (cm^3) as cited in Shibamoto et al, 1996.

[9] = control schedule HA D1,3 / 5-FU D 2, 4 of 7 day cycle

In the case of `CO[C@@]12[C@H](COC(N)=O)C3=C(C(=O)C(C)=C(N)C3=O)N1C[C@@H]1N[C@@H]12` [mitomycin C], the anti-tumour activity [1] is listed as “did not demonstrate anti-tumour activity”.
In the case of `CN(Cc1cnc2nc(N)nc(N)c2n1)c1ccc(C(=O)N[C@@H](CCC(=O)O)C(=O)O)cc1` [MTX, methotrexate], the “time for all amine hydrogens of MTX to exchange with deuterium” value ([2]; MTX and HA in 0.5% w/v Na2CO3 (pH 9), deuterium oxide added) is reported as no more than 4 min and the “interaction between MTX and HA (transferred NOESY)” value ([2]; MTX/HA, no crosspeaks) is reported as “negligible interaction”.
For `O=c1[nH]cc(F)c(=O)[nH]1` [5-FU, 5-fluorouracil], the peak plasma level [3] is listed as 8 μg/ml and 61 μM, the “Experimental endpoint: immobilsed” value ([4]; 6-month study, % of animals) is listed as 62.5% immobilsed and the “mice experiencing a cure (tumours fully necrosed and dropped off)” value ([4]; 6-month study, after approximately 12 weeks of treatment) is listed as “did not experience a “cure””. The “TDT Mean ± SEM” value ([4]; 6-month study, days 1 & 8 of 28 day cycle (HA followed by 5-FU: days 1, 2, 8, 9)) was 22.7 ± 2.9 days, the “Experimental endpoint: metabolic stress” value ([4]; mouse, in vivo) was 37.5% metabolic and the cure rate [5] was 26%. For the same molecule, the “interaction of 5-FU with HA (chemical shift of CH peak)” value [6] was “does not appear to be interacting”, the IC50 [7] was greater than 50 µM and the “primary tumour at end of the 6 week study compared with the saline group” value [8] was “significantly smaller tumours”. The “Number of animal completing treatment” value [8, 9] was 8/8, the “TDT Mean ± SEM” value [8, 9] was 15.3 ± 2.5 days and the “% of animals with lymph node metastasis” value ([8]; days 1 & 2 of 7 day cycle) was 100%. The “% of lymph node involved per animal mean ± SEM” value ([8]; days 1 & 2 of 7 day cycle) was 14.3 ± 2.9%, the “Number of new tumours” value ([8]; days 1 & 2 of 7 day cycle) was 1 and the “Number of animal completing treatment” value ([8]; days 1 & 2 of 7 day cycle (HA followed by 5-FU: days 1-4)) was 8/8. The “TDT Mean ± SEM” value ([8]; days 1 & 2 of 7 day cycle (HA followed by 5-FU: days 1-4), 30 mg/kg 5-FU, 12.5 mg/kg HA) was 32.1 ± 3.5 days.
